Experimental data: ChEMBL document CHEMBL1201862, “PubChem BioAssay data set” (2004)
Structures can show the parent of a compound that is named as a salt.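 1) Cells in 96-well plates. 2) Compound, 48 h, 5 concentrations. 3) Linear interpolation between surrounding doses. 4) Unreached endpoint = highest concentration. At the GI50, growth is halved.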 Calls of active or inactive are those of the source. Rule as the data show it: active = GI50 up to about 1.1 µM and inactive = higher.

Tests used:
Assay in all cases: DTP human tumour cell line panel, 48 h
DLD-1 = system: DLD-1
DMS-273 = system: DMS-273
KM-20L2 = system: KM-20L2
LXFL 529 = system: LXFL 529
M19-MEL = system: M19-MEL
SNB-78 = system: SNB-78
RXF 631 = system: RXF 631
XF498 = system: XF498
HOP-18 = system: HOP-18

Structure (SMILES)	GI50 (DLD-1)	GI50 (DMS-273)	GI50 (KM-20L2)	GI50 (LXFL 529)	GI50 (M19-MEL)	GI50 (SNB-78)	GI50 (RXF 631)	GI50 (XF498)	GI50 (HOP-18)
COC1C=COC2(C)Oc3c(C)c(O)c4c(O)c(c(/C=N/N5CCN(N)CC5)c(O)c4c3C2=O)NC(=O)C(C)=CC=CC(C)C(O)C(C)C(O)C(C)C(OC(C)=O)C1C (centres undefined)	82.6 µM (inactive)	> 100 µM (inactive)	> 100 µM (inactive)	63.4 µM (inactive)	42 µM (inactive)	88.1 µM (inactive)			
O=C1CCCCCCCCCCC(=O)C2CCOCCOCCOCCC1Cc1cccc(n1)C2	> 100 µM (inactive)	54.5 µM (inactive)	> 100 µM (inactive)	59.8 µM (inactive)	> 100 µM (inactive)	79.6 µM (inactive)	80.4 µM (inactive)	59.7 µM (inactive)	
CCCOc1nc(N)c2cnn(C3CCCCO3)c2n1 (centres undefined)	> 100 µM (inactive)	> 100 µM (inactive)	> 100 µM (inactive)	> 100 µM (inactive)	> 100 µM (inactive)	> 100 µM (inactive)			68.9 µM (inactive)
O=C1C(=O)N(c2cc(Cl)ccc2Cl)C(=O)C(=O)C1c1nc2ccccc2s1	> 100 µM (inactive)	> 100 µM (inactive)	> 100 µM (inactive)	82.2 µM (inactive)	> 100 µM (inactive)	> 100 µM (inactive)		> 100 µM (inactive)	
CC(C)(C)[Si](C)(C)O/N=C\c1cccc(O[Si](C)(C)C(C)(C)C)c1	17.8 µM (inactive)	17.7 µM (inactive)	20.1 µM (inactive)	15.7 µM (inactive)	17.8 µM (inactive)	15.7 µM (inactive)		18.5 µM (inactive)	22.5 µM (inactive)
OCC(O)COc1c(Cl)cc(Cl)cc1Cl (centres undefined)	> 59.7 µM (inactive)	> 100 µM (inactive)	> 100 µM (inactive)	> 90.8 µM (inactive)	> 100 µM (inactive)	> 100 µM (inactive)	> 100 µM (inactive)	> 100 µM (inactive)	> 100 µM (inactive)
CCCCN/C(=N\C#N)N(Cc1ccccc1)Cc1ccccc1	19.1 µM (inactive)	16.1 µM (inactive)	20.8 µM (inactive)	16.9 µM (inactive)	18.1 µM (inactive)	18.2 µM (inactive)			39.8 µM (inactive)
COC(=O)C(CC(=O)c1c[nH]c2ccccc12)c1c[nH]c2ccccc12 (centres undefined)	30.8 µM (inactive)	13.5 µM (inactive)	17.9 µM (inactive)		> 10 µM (inactive)	22.2 µM (inactive)	15.8 µM (inactive)	17.9 µM (inactive)	
COc1cc2c[n+](C)c3c4cc(OC)c(OC(C)C)cc4ccc3c2cc1OC	> 100 µM (inactive)	27.2 µM (inactive)	62.7 µM (inactive)	7.35 µM (inactive)	18.4 µM (inactive)	50 µM (inactive)			49.7 µM (inactive)
CC1(C)COC(c2ccc(C(F)(F)F)cc2C(O)c2ccc3ccccc3c2)=N1 (centres undefined)	> 10 µM (inactive)	> 10 µM (inactive)	> 10 µM (inactive)	> 10 µM (inactive)	> 10 µM (inactive)	89.3 µM (inactive)	> 100 µM (inactive)	64.3 µM (inactive)	> 10 µM (inactive)
C[n+]1c2ccccc2c(CNC(CCC(N)=O)C(=O)O)c2ccccc21 (centres undefined)	0.475 µM (active)	1.21 µM (inactive)	1.1 µM (active)	0.817 µM (active)	2.18 µM (inactive)	6.5 µM (inactive)		2 µM (inactive)	2.09 µM (inactive)
CN(C)CCCOc1ccc(/C=C2/CCC/C(=C/c3ccc(OCCCN(C)C)cc3)C2=O)cc1	1.5 µM (inactive)	1.45 µM (inactive)	0.232 µM (active)	1.89 µM (inactive)		3.25 µM (inactive)			3.61 µM (inactive)
COC1[C@@H](OC(C)=O)[C@@H](NC(=O)C(Cl)(Cl)Cl)C(I)[C@@H](N2C(=O)c3ccccc3C2=O)[C@H]1OC (some centres undefined)	> 100 µM (inactive)	> 100 µM (inactive)	> 100 µM (inactive)	> 100 µM (inactive)		> 100 µM (inactive)			> 100 µM (inactive)
CN(c1n[n+]2c(-c3ccccc3)csc2s1)c1n[n+]2c(-c3ccccc3)csc2s1	> 100 µM (inactive)	> 100 µM (inactive)	> 100 µM (inactive)	87.3 µM (inactive)	> 100 µM (inactive)	> 100 µM (inactive)		> 100 µM (inactive)	> 100 µM (inactive)
COc1ccc(/C=C2\CCC(CCN(C)C)(C3=CCCC3)C2=O)cc1 (centres undefined)	26.4 µM (inactive)	17.1 µM (inactive)	14.1 µM (inactive)	16.7 µM (inactive)	15.1 µM (inactive)	21.8 µM (inactive)			14.1 µM (inactive)
CC(=O)N(O)CCCCCNC(=O)CCC(=O)N(O)CCCCCNC(=O)CCC(=O)N(O)CCCCCN [DEFEROXAMINE HYDROCHLORIDE]	45.3 µM (inactive)	28.2 µM (inactive)	17.8 µM (inactive)	36.4 µM (inactive)	43.8 µM (inactive)	> 100 µM (inactive)	26.9 µM (inactive)	> 100 µM (inactive)	12.7 µM (inactive)
